Assay results as given in US20180110824A1, “Macrocyclic Modulators of the Ghrelin Receptor” (Ocera Therapeutics, Inc., priority 2016, published 2018).
pEC50, pKi: −log10 of the molar value. Like-named read-outs stand apart in the source and are kept apart here.

Experiments:
motilin receptor = motilin receptor (Homo sapiens, UniProt O43193); test: Selectivity for the ghrelin receptor versus the motilin receptor; assay type: binding
Description: The level of agonist activity and selectivity for representative compounds of the invention are shown below in Table 4.

[1] = target: T1, human ghrelin receptor (hGHS-R1a) (Homo sapiens, UniProt Q92847); test: Aequorin functional assay (ghrelin receptor), CHO-K1 cells co-expressing Gα16 and aequorin; assay type: cell-based; details: Table 4; functional (agonist) activity; TFA salts unless otherwise noted; read-out: EC50
T1 construct: host or cells: CHO-K1 co-expressing Gα16 and mitochondrially targeted aequorin
Method: This cell line is typically constructed by transfection of the human ghrelin receptor into CHO-K1 cells co-expressing Gα16 and the mitochondrially targeted Aequorin (Ref #ES-WT-A5). • 1. […] Assay buffer: DMEM (Dulbecco's Modified Eagles Medium) containing 0.1% BSA (bovine serum albumin; pH 7.0). • 3. Coelenterazine (Molecular Probes, Leiden, The Netherlands). • Final test concentrations (N=8) for compounds of the invention: 10, 1, 0.3, 0.1, 0.03, 0.01, 0.003, 0.001 μM.
Stock solutions of compounds (10 mM in 100% DMSO) were provided frozen on dry ice and stored at −20° C. prior to use. […] Assay plates were then prepared by appropriate dilution in DMEM medium containing 0.1% BSA. Under these conditions, the maximal final DMSO concentration in the assay was <0.6%.
AequoScreen™ cells were collected from culture plates with Ca^2+ and Mg^2+-free phosphate buffered saline (PBS) supplemented with 5 mM EDTA, pelleted for 2 min at 1000×g re-suspended in DMEM—Ham's F12 containing 0.1% BSA at a density of 5×10^6 cells/mL, and incubated O/N at rt in the presence of 5 μM coelenterazine. After loading, cells were diluted with assay buffer to a concentration of 5×10^5 cells/mL.
For agonist testing, 50 μL of the cell suspension was mixed with 50 μL of the appropriate concentration of test compound or ghrelin (reference agonist) in 96-well plates (duplicate samples). Ghrelin (reference agonist) was tested at several concentrations concurrently with the test compounds in order to validate the experiment. The emission of light resulting from receptor activation in response to ghrelin or test compounds was recorded using the Hamamatsu FDSS 6000 reader (Hamamatsu Photonics K.K., Japan).
Results were expressed as Relative Light Units (RLU). […] EC50, Hill slope and % Emax values are reported.
• 1. Assay performed on CHO-K1 cells expressing the transfected, cloned human ghrelin receptor (hGHS-R1a) and Gα16. • 2. Suspended cells incubated O/N with coelenterazine. • 3. Stimulation of hGHS-R1a activates Gα16, causing […] Ca2+ release which ultimately leads to the oxidation of coelenterazine and the emission of a quantitative luminescent signal. • 4. Ghrelin was used as the positive control. • 5.

[2] = target: T2, human growth hormone secretagogue receptor (hGHS-R1a) (Homo sapiens, UniProt Q92847); test: Competitive radioligand binding assay (ghrelin receptor), [125I]-ghrelin displacement on GHS-R/HEK 293 membranes;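 as to Binding Activity at the Human Ghrelin Receptor (Ki): symbols B 10-100 nM C 0.1-1 µM D 1-10 µM F above 1 µM G above 10 µM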
T2 construct: purchased PerkinElmer BioSignal #RBHGHSM; host or cells: HEK-293, stably transfected

[3] = Table 3B, binding activity at the human ghrelin receptor, read-out: Ki
[4] = Table 4, TFA salts unless otherwise noted, read-out: Ki
[5] = Binding activity at the human ghrelin receptor, [125I]-ghrelin displacement, read-out: Ki
[6] = [125I]-ghrelin displacement, GHS-R/HEK 293 membranes, class symbols, read-out: Binding Activity at the Human Ghrelin Receptor (Ki)

Chain of motilin receptor (O43193 whole entry, species assumed): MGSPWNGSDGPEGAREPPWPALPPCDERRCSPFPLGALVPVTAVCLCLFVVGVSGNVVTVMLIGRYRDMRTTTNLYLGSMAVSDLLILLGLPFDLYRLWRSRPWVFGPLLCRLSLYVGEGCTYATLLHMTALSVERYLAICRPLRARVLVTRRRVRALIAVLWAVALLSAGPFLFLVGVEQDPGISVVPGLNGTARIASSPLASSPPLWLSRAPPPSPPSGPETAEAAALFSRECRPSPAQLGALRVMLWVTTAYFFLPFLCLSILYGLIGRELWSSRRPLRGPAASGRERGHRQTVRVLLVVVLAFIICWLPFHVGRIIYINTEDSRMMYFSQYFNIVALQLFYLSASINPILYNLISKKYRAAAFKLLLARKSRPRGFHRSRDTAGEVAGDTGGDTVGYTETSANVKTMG
T2 sequence (Q92847 whole entry): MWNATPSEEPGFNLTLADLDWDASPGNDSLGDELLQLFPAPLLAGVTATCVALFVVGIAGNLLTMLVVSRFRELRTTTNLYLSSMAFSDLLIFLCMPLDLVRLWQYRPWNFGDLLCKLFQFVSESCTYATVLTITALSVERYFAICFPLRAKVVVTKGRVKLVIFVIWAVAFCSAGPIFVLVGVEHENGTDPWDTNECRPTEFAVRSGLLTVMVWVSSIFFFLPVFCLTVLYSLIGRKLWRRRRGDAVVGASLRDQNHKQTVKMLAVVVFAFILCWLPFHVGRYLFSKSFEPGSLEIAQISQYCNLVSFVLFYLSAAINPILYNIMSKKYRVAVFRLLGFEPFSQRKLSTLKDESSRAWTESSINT
T1 sequence (Q92847 whole entry): as above

Compound | Selectivity (motilin receptor) | pEC50 [1] | pKi [2, 4] | also measured
C[C@@H]1C(=O)N[C@H](Cc2ccc(F)cc2)C(=O)NCCCc2ncccc2OCCN[C@@H](C2CC2)C(=O)N1C [306a] | 714/1 | 7.00 to 9.00 | 7.00 to 8.00 | pKi [2, 3]: 7.00 to 8.00
CCC(C)[C@@H]1NCCOc2ccccc2/C=C/CNC(=O)[C@H](Cc2cccc(Cl)c2)NC(=O)C2(CCCC2)NC1=O (stereo partly shown) [345a] | >159/1 | 7.00 to 9.00 | 7.00 to 8.00 | pKi [2, 3]: 6.00 to 7.00
CCCC[C@@H]1NCCOc2ccccc2CCCNC(=O)[C@@H](Cc2ccccc2)NC(=O)CN(C)C1=O [Compound 1] | 142/1 | 6.00 to 7.00 | 7.00 to 8.00 | pKi [2, 5]: 7.00 to 8.00
CC(C)[C@@H]1NCCOc2ccccc2CCCNC(=O)[C@@H](Cc2ccccc2)NC(=O)CN(C)C1=O [Compound 3] | – | 6.00 to 7.00 | 6.00 to 7.00 | pKi [2, 5]: 6.00 to 7.00
CCCC1NCCOc2ccccc2CCCNC(=O)C(Cc2ccccc2)NC(=O)C(C)N(C)C1=O (stereo not shown) [Compound 4] | 3012/1 | – | – | –
CCC(C)C1NCCOc2ccccc2CCCNC(=O)C(Cc2ccccc2)NC(=O)C(C)NC1=O (stereo not shown) [compound 2] | – | 6.00 to 7.00 | 6.00 to 7.00 | pKi [2, 5]: 6.00 to 7.00
CCC[C@@H]1NCCOc2ccccc2CCCNC(=O)[C@@H](Cc2ccccc2)NC(=O)CN(CC)C1=O [compound 5] | – | 6.00 to 7.00 | 6.00 to 7.00 | pKi [2, 5]: 6.00 to 7.00
CCC(C)C1NCCOc2ccccc2CCCNC(=O)C(Cc2ccccc2)NC(=O)C(C)N(C)C1=O (stereo not shown) [compound 15] | >1700/1 | – | – | –
CC[C@@H](C)[C@@H]1NCCOc2ccccc2CCCNC(=O)[C@@H](Cc2ccccc2)NC(=O)[C@@H](C)N(C)C1=O [compound 16] | >2000/1 | – | – | –
CC(C)C1NCCOc2ccccc2C=CCNC(=O)C(Cc2ccccc2)NC(=O)C(C)N(C)C1=O (stereo not shown) [compound 19] | >1700/1 | – | – | –
CC(C)C[C@@H]1NCCOc2ccccc2/C=C/CNC(=O)[C@H](Cc2ccccc2Cl)NC(=O)C2(CCCC2)NC1=O [compound 20] | 1044/1 | – | – | –
CCC(C)C1NCCOc2ccccc2CCCNC(=O)C(Cc2cccc(Cl)c2)NC(=O)C(C)N(C)C1=O (stereo not shown) [compound 24] | 3039/1 | – | – | –
CCC(C)C1NCCOc2ccccc2CCCNC(=O)C(Cc2ccc3ccccc3c2)NC(=O)C(C)N(C)C1=O (stereo not shown) [compound 31] | 4900/1 | – | – | –
CCC(C)C1NCCOc2ccccc2CCCNC(=O)C(Cc2cccs2)NC(=O)C(C)N(C)C1=O (stereo not shown) [compound 34] | >1000/1 | – | – | –
CCC(C)[C@@H]1NC[C@@H](C)Oc2ccccc2CCCNC(=O)[C@@H](Cc2ccccc2)NC(=O)[C@@H](C)N(C)C1=O (stereo partly shown) [compound 35] | – | 7.00 to 9.00 | 7.00 to 8.00 | pKi [2, 5]: 7.00 to 8.00
CCC(C)[C@@H]1NC[C@@H](C)Oc2ccccc2CCCNC(=O)[C@@H](Cc2ccccc2)NC(=O)[C@@H](C)N(C)C1=O (stereo partly shown) [compound 36] | – | 6.00 to 7.00 | – | pKi [2, 5]: 7.00 to 8.00
CCCC1NCCOc2ccccc2C=CCNC(=O)C(Cc2ccccc2)NC(=O)C(C)N(C)C1=O (stereo not shown) [compound 39] | 3400/1 | – | – | –
CCC(C)C1NCCOc2ccccc2C=CCNC(=O)C(Cc2ccccc2)NC(=O)C(C)N(C)C1=O (stereo not shown) [compound 40] | >3300/1 | – | – | –
CCC(C)C1NCCOc2ccccc2CCCNC(=O)C(Cc2ccccc2)NC(=O)C(C)N(C)C1=O (stereo not shown) [compound 42] | 4300/1 | – | – | –

Compound | Selectivity (motilin receptor) | pEC50 [1] | pKi [2, 4] | also measured
CCC(C)C1NCCOc2ccccc2CCCNC(=O)C(Cc2ccccc2)NC(=O)C(C)N(CC)C1=O (stereo not shown) [compound 43] | 3700/1 | – | – | –
CC(C)C[C@@H]1NCCOc2ccccc2/C=C/CNC(=O)[C@H](CC(C)C)NC(=O)C2(CCCC2)NC1=O [compound 47] | – | 7.00 to 9.00 | 6.00 to 7.00 | pKi [2, 5]: 6.00 to 7.00
CC(C)C[C@@H]1NCCOc2ccccc2CCCNC(=O)[C@@H](Cc2ccccc2)NC(=O)C2(CCCC2)NC1=O [compound 97] | – | 6.00 to 7.00 | 7.00 to 8.00 | pKi [2, 5]: 6.00 to 7.00
CC(C)C[C@@H]1NCCOc2ccccc2CCCNC(=O)[C@H](Cc2ccccc2)NC(=O)C2(CC2)NC1=O [compound 111] | – | 6.00 to 7.00 | 7.00 to 8.00 | pKi [2, 5]: 6.00 to 7.00
CC(C)[C@@H]1NCCOc2ccccc2/C=C/CNC(=O)[C@H](Cc2ccccc2)NC(=O)C2(CCOCC2)NC1=O [compound 140] | – | 6.00 to 7.00 | 6.00 to 7.00 | pKi [2, 5]: 6.00 to 7.00
COc1ccc(C[C@@H]2NC(=O)C3(CCCC3)NC(=O)[C@H](CC(C)C)NCCOc3ccccc3/C=C/CNC2=O)cc1 [compound 156] | – | 7.00 to 9.00 | 7.00 to 8.00 | pKi [2, 6]: 7.00 to 8.00
CCC(C)C1NCCOc2ccccc2CCCNC(=O)C(CC(C)C)NC(=O)C(C)N(C)C1=O (stereo not shown) [compound 176] | 105/1 | – | – | –
C[C@@H]1C(=O)N[C@H](Cc2ccccc2)C(=O)NCCCc2ccccc2OCCN2CCCC[C@H]2C(=O)N1C [compound 226] | – | < 6.00 | 7.00 to 8.00 | pKi ([2]; Table 3E, read-out: Ki): 7.00 to 8.00; pKi [2, 6]: 7.00 to 8.00
C[C@@H]1C(=O)N[C@H](Cc2ccc(Cl)cc2)C(=O)NCCCc2ccccc2OCCN[C@@H](C2CC2)C(=O)N1C [compound 299] | – | 7.00 to 9.00 | 8.00 to 10.00 | pKi [2, 3]: 8.00 to 10.00
C[C@@H]1C(=O)N[C@H](Cc2ccc(O)c(C(C)(C)C)c2)C(=O)NCCCc2ccccc2OCCN[C@@H](C2CC2)C(=O)N1C [compound 311] | 21/1 | – | 7.00 to 8.00 | pKi [2, 3]: 7.00 to 8.00
C[C@@H]1C(=O)N[C@H](Cc2c(F)c(F)c(F)c(F)c2F)C(=O)NCCCc2ccccc2OCCN[C@@H](C2CC2)C(=O)N1C [compound 318] | – | 7.00 to 9.00 | 8.00 to 10.00 | pKi [2, 3]: 8.00 to 10.00
C[C@@H]1C(=O)N[C@H](Cc2ccc(C(F)(F)F)cc2)C(=O)NCCCc2ccccc2OCCN[C@@H](C2CC2)C(=O)N1C [compound 322] | – | 7.00 to 9.00 | 8.00 to 10.00 | pKi [2, 3]: 8.00 to 10.00
CC1(C)NC(=O)C2(CCCC2)NCCOc2ccccc2/C=C/CNC(=O)[C@H](Cc2cccc(Cl)c2)NC1=O [compound 334] | 346/1 | – | – | –
C[C@@H]1C(=O)N[C@H](Cc2ccc(F)cc2)C(=O)NCC#Cc2ccccc2OCCN[C@@H](C2CC2)C(=O)N1C [compound 354] | – | 7.00 to 9.00 | 7.00 to 8.00 | pKi [2, 3]: 7.00 to 8.00
CC[C@H](C)[C@@H]1NCCCCCCCCNC(=O)[C@H](Cc2cccc(Cl)c2)NC(=O)C2(CCCC2)NC1=O [compound 363] | 35/1 | – | 6.00 to 7.00 | pKi [2, 3]: 6.00 to 7.00
CC1CNC(C2CC2)C(=O)N(C)C(C)C(=O)NC(Cc2ccc(F)cc2)C(=O)NCCCc2ccccc2O1 (stereo not shown) [compound 367] | – | 7.00 to 9.00 | 7.00 to 8.00 | pKi [2, 3]: 7.00 to 8.00
CCC(C)C1NCCOc2ccccc2C2CC2CNC(=O)C(Cc2cccc(Cl)c2)NC(=O)C2(CCCC2)NC1=O (stereo not shown) [compound 388] | 400/1 | – | – | –
CC1COc2ccccc2CCCNC(=O)C(Cc2ccc(F)cc2)NC(=O)C(C)N(C)C(=O)C(C2CC2)N1 (stereo not shown) [compound 394] | 1700/1 | – | – | –
